# Counter-ions that a name gives are not always drawn.
# Test system: CUMS rats
# Test: Rat chronic unpredictable mild stress depression model (CUMS) test, sucrose preference
# Assay type: in vivo, Wistar rats
# Conditions: for effect on sucrose water intake of CUMS rats: 0.375 mg/kg
# Description: Rat Chronic Unpredictable Mild Stress Depression Model (CUMS) Test
# Variety: Wistar rats; Sex: male; Body Weight: 200 g.
# Compounds I and II (being compounds of Examples 1 and 5 respectively), venlafaxine hydrochloride
# Experimental method comprises starting CUMS program after adaptively breeding the rats for 1 week.
# 1) Sucrose preference experiment: all animals were fed with 1% sucrose water within the first 24 h; during the subsequent 24 h, all the animals were simultaneously fed with 1% sucrose water and common drinking water, then fasted with water deprivation for 23 h. Subsequently sucrose preference experiment was performed: simultaneously feeding the animals with 1% sucrose water and common drinking water, and measuring the drinking amounts of sucrose water and common drinking water for animals in 1 h by weighing the drinking water bottles. The animals were grouped evenly according to the animal body weight, liquid consumption amount and sucrose water consumption, and subjected to chronic unpredictable mild stress stimulation.
# 2) CUMS experiment: the rats were alternately given tens of stress stimulation factors each week, so that the rats cannot predict the stimulation duration of each stress factor and the stimulation to be given subsequently. The stimulation factor includes: flash stimulation, noise stimulation, rat cage inclination; and strange smell environment feeding, fasting, water deprivation.
# 3) Detection method comprising: detecting liquid consumption amount after food-fasting and water-deprivation for 21 h each week, recording the body weight, total liquid intake, water intake and sucrose water intake of each animal, and calculating sucrose water preference percentage (preference=(sucrose water intake/total liquid intake)×100%) and sucrose water consumption amount per gram of body weight of each rat.
# [1] = 1.5 mg/kg and 0.75 mg/kg, after the fifth week (P<0.01 or 0.05)
Structure (SMILES),effect on sucrose water intake of CUMS rats,sucrose water intake of CUMS rats as compared to the model group [1],"sucrose water intake of CUMS rats as compared to the model group (20 mg/kg, during the fifth week (P<0.01))"
CC(C)(O)C1CCC(C)(C2CCC3(C)C2C(=NO)CC2C4(C)CCC(=NO)C(C)(C)C4CCC23C)O1 (centres unmarked) [Compound II],not significant,statistically significant difference,–
CC(C)=CCCC(C)(O)C1CCC2(C)C1C(=NO)CC1C3(C)CCC(=NO)C(C)(C)C3CCC12C (centres unmarked) [Compound I],not significant,statistically significant difference,–
"COc1ccc(C(CN(C)C)C2(O)CCCCC2)cc1 (centres unmarked) [Venlafaxine, venlafaxine hydrochloride, reference compound]",–,–,statistically significant difference

# Source: patent US9475836B2, “Protopanoxadiol derivative, preparation method thereof and application thereof” (SHANG HAI INNOVATIVE RESEARCH CENTER OF TRADITIONAL CHINESE …, priority 2013, dated 2016)
